Source: patent US20220193070A1, “METHODS FOR TREATING ABSENCE SEIZURES” (XENON PHARMACEUTICALS INC., priority 2020, published 2022)
Marks after values point to notes of the source that are not given here.

Columns and labels:
absence seizures [1] = test: Open-label clinical study: number of absence seizures during EEG; type: in vivo, human; parameters: reduction of absence seizures on EEG: concentration or dose not given beside the values
Source text: The secondary objectives are to evaluate EEG changes in patients with absence epilepsy; to evaluate changes in quality of life for patients; and to evaluate global impression change and clinical impression of change. The secondary outcome measures include median percent change in the number of absence seizures on EEG, and bursts of spike/wave lasting 2 or more seconds in patients treated with flunarizine compared with the baseline period; Clinical and Patient Global Impression of Change scores during the flunarizine treatment period; median percent change in weekly absence seizure frequency from baseline compared to end of study period; and median percent change in weekly absence seizure frequency from flunarizine treatment period.

absence seizures [2] = test: Open-label clinical study: absence seizure frequency from patient seizure diaries; type: in vivo, human
Source text: Seizure frequency is documented via seizure diaries and side effects and safety are closely monitored. This study informs the feasibility and utility of conducting a larger clinical trial.
Objectives: The primary objective is to assess the efficacy, safety and tolerability of flunarizine compared to a baseline period on absence seizures in patients with treatment refractory generalized epilepsy taking a minimum of one anti-seizure medication (ASM).
This is an open-label, single-centre study to evaluate the clinical efficacy, safety and tolerability of flunarizine administered as adjunctive treatment in participants diagnosed with treatment resistant absence epilepsy. The study includes 20 participants.
Inclusion Criteria: Participants eligible for this study meet all of the following criteria: • 1. Participant is 4 to 18 years of age • 2. Participant has treatment resistant absence seizures. Treatment resistant absence seizures are defined as failure to respond to […] appropriate anti-seizure medications (ASMs). […] Participant must currently be taking a minimum of one ASM • 4. Normal development (may have specific learning disabilities and/or ADHD/ADD) • 5. EEG confirmation of absence seizures and EEG within 2 months of screening visit • 6. Absence seizures reported at least 10 times per week • 7. Participants must have no changes in baseline ASMs for 1 month prior to screening period • 8. Participant or caregiver can maintain a seizure diary • 9. Participant is able to swallow capsules • 10. Written informed consent must be provided. Legal guardians of the participants must be able to understand and provide written consent on behalf of the participant, since study participants may be too young to provide informed consent. For participants 7-18 years of age, assent is required along with written informed consent of the caregiver. • 11. The participant is willing and able to attend all study visits • 12. Participant has the ability to speak and read in English • 13. Females of child bearing potential who are sexually active must be willing to use contraceptive methods for the duration of the study and 6 months post last dose of study drug. • 14. Males who are sexually active with females of child bearing potential must be willing to use contraception for the duration of the study and 3 months post last dose of study drug.
The initial dose of flunarizine at Visit 2 is 5 mg/day taken at night. The dose is taken orally as one 5 mg capsule. In order to optimize response to treatment, dose escalation, at the discretion of the investigator, is performed at Visit 3. If the 5 mg/day dose is tolerated by any given participant, the dose is escalated to 10 mg/day taken as two 5 mg capsules. […] The investigator uses discretion to maintain or adjust the dose level based on the study participant's tolerability and clinical response, alongside other medical considerations. If deemed necessary by the investigator, the 10 mg dose is be split into morning and evening doses to reduce minor side effects.
At the screening visit, the seizure history is assessed using detailed parental interviews and chart review. The investigator takes the participant's medical history (including date of seizure onset date of epilepsy diagnosis). The participant's vital signs (temperature, blood pressure and heart rate), height and weight are recorded.

[3] = Open-label clinical study: safety, tolerability and questionnaires

With `Fc1ccc(C(c2ccc(F)cc2)N2CCN(C/C=C/c3ccccc3)CC2)cc1` [Flunarizine, 1-[bis(4-fluorophenyl)methyl]-4-cinnamyl-piperazine] the “absence seizures on EEG” value (absence seizures [1]; 2 of the three CAE subjects) was “resolution of absence seizures”, the “% Reduction in Seizures (EEG)” value (absence seizures [1]; Patient 1 (Jeavons)) was 11% and the “Number of Absence Seizures during EEG, Visit 5” value (shortened to “Number”) (absence seizures [1]; Patient 1 (Jeavons), baseline 9) was 8. The “% Reduction in Seizures (EEG)” value (absence seizures [1]; Patient 3 (CAE)) was 94%, the “Number” value (absence seizures [1]; Patient 3 (CAE), baseline 16) was 1 and the “% Reduction in Seizures (EEG)” value (absence seizures [1]; Patient 4 (CAE)) was 100%. The “Number” value (absence seizures [1]; Patient 4 (CAE), baseline 7) was 0, the “% Reduction in Seizures (EEG)” value (absence seizures [1]; Patient 5 (CAE)) was 100% and the “Number” value (absence seizures [1]; Patient 5 (CAE), baseline 5) was 0. The “% Reduction in Seizures (EEG)” value (absence seizures [1]; Patient 6 (JAE), 10 mg) was 50 to 100%***, the “Number” value (absence seizures [1]; Patient 6 (JAE), 10 mg, baseline 6) was 3 and the “reduction of absence seizures on EEG” value (absence seizures [1]; one of the three CAE subjects) was 94%. The “reduction in seizures, EEG data” value (absence seizures [1]; single JAE subject) was 50 to 100%, the “reduction in diary recorded seizures” value (absence seizures [2]; 2 of the 3 CAE patients) was over 80% and the “Seizure Frequency at visit 5” value (absence seizures [2]; Patient 1, Jeavons, 10 mg daily, current ASMs VPA, CLON, baseline 409 per month) was 608. The “% Reduction in Seizures” value (absence seizures [2]; Patient 1, Jeavons, 10 mg daily, printed as Increase) was about 50%, the “% Reduction in Seizures” value (absence seizures [2]; Patient 3, CAE, 10 mg daily) was 85% and the “Seizure Frequency at visit 5” value (absence seizures [2]; Patient 3, CAE, 10 mg daily, current ASMs LTG, ESM, ketogenic diet, baseline 41 per month) was 6. The “% Reduction in Seizures” value (absence seizures [2]; Patient 4, CAE, 10 mg daily) was 57%, the “Seizure Frequency at visit 5” value (absence seizures [2]; Patient 4, CAE, 10 mg daily, current ASM LTG, baseline 79 per month) was 34 and the “% Reduction in Seizures” value (absence seizures [2]; Patient 5, CAE, 5 mg daily) was 83%. The “Seizure Frequency at visit 5” value (absence seizures [2]; Patient 5, CAE, 5 mg daily, current ASM VPA, baseline 54 per month) was 9, the “reduction in diary recorded seizures” value (absence seizures [2]; all 3 CAE patients) was over 50% and the change in seizures (absence seizures [2]; one of the two patients with Jeavons Syndrome) was “increased seizures”. The study termination (absence seizures [2]; the other patient with Jeavons Syndrome) was “terminated within one week due to increase in seizures”, the response to flunarizine (absence seizures [2]; the two patients with Jeavons Syndrome) was “did not respond” and the “Depressive symptoms and somnolence” value ([3]; human, in vivo) was “not observed in any patient”. The tolerability ([3]; patients 4 to 18 years, 5 or 10 mg/day oral) was “well tolerated” and the side effect ([3]; resulting in medication discontinuation) was “weight gain as the only side effect in one patient”.
